Experimental data taken from PubChem BioAssay AID248 (DTP/NCI, 2004).
Values joined by “and” are separate entries in the source; they are usually repeats but may differ in a detail not shown here. Equal values may be shown once. Toxic doses and inconclusive results are not listed. Rule as the data show it: active = T/C of 150% or more; inactive = T/C below 125%. Square brackets hold non-standard residues; d marks the D form. Peptide text beside a SMILES is read from it. * marks the point of attachment. Cbz = O=C(OCc1ccccc1)*; Abu = CC[CH](N)C(=O)O; OBn = c1ccc(CO*)cc1

Test system: L1210 leukemia ip in BDF1 mice, survival T/C
Test: NCI In Vivo Anticancer Drug Screen. Data for tumor model L1210 Leukemia (intraperitoneal) in B6D2F1 (BDF1) mice
Conditions: endpoint: mean survival time, higher = longer survival
Summary of the method: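 Value reflects the ratio of survival in compound-treated mice to survival in vehicle-treated controls, with both groups carrying the same transplanted tumor.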

[1] = dose: 50.0 mg/kg/injection, schedule: Q01DX009 (ip), vehicle: saline
[2] = dose: 100.0 mg/kg/injection, schedule: Q01DX009 (ip), vehicle: Klucel (hydroxypropylcellulose) (HPC)
[3] = dose: 200.0 mg/kg/injection, schedule: Q01DX009 (ip), vehicle: Klucel (hydroxypropylcellulose) (HPC)
[4] = dose: 400.0 mg/kg/injection, schedule: Q01DX009 (ip), vehicle: Klucel (hydroxypropylcellulose) (HPC)
[5] = dose: 200.0 mg/kg/injection, schedule: Q01DX009 (ip), vehicle: saline with Tween-80
[6] = dose: 400.0 mg/kg/injection, schedule: Q01DX009 (ip), vehicle: saline with Tween-80
[7] = dose: 100.0 mg/kg/injection, schedule: Q04DX003 (ip), vehicle: Klucel (hydroxypropylcellulose) (HPC)
[8] = dose: 200.0 mg/kg/injection, schedule: Q04DX003 (ip), vehicle: Klucel (hydroxypropylcellulose) (HPC)
[9] = dose: 400.0 mg/kg/injection, schedule: Q04DX003 (ip), vehicle: Klucel (hydroxypropylcellulose) (HPC)
[10] = dose: 100.0 mg/kg/injection, schedule: Q01DX001 (ip), vehicle: Klucel (hydroxypropylcellulose) (HPC)
[11] = dose: 200.0 mg/kg/injection, schedule: Q01DX001 (ip), vehicle: Klucel (hydroxypropylcellulose) (HPC)
[12] = dose: 100.0 mg/kg/injection, schedule: Q04DX002 (ip), vehicle: Klucel (hydroxypropylcellulose) (HPC)
[13] = dose: 200.0 mg/kg/injection, schedule: Q04DX002 (ip), vehicle: Klucel (hydroxypropylcellulose) (HPC)
[14] = dose: 400.0 mg/kg/injection, schedule: Q04DX002 (ip), vehicle: Klucel (hydroxypropylcellulose) (HPC)
[15] = dose: 200.0 mg/kg/injection, schedule: Q01DX001 (ip), vehicle: carboxymethylcellulose (CMC)
[16] = dose: 400.0 mg/kg/injection, schedule: Q01DX001 (ip), vehicle: carboxymethylcellulose (CMC)
[17] = dose: 100.0 mg/kg/injection, schedule: Q01DX001 (ip), vehicle: other
[18] = dose: 200.0 mg/kg/injection, schedule: Q01DX001 (ip), vehicle: other
[19] = dose: 400.0 mg/kg/injection, schedule: Q01DX001 (ip), vehicle: other

Measured: T/C

CCOC(OCC)c1nc(N)c2cnn(C)c2n1
inactive: dose: 6.25 mg/kg/injection, schedule: Q01DX009 (ip), vehicle: saline 89 % of control | dose: 12.5 mg/kg/injection, schedule: Q01DX009 (ip), vehicle: saline 97 % of control | dose: 25.0 mg/kg/injection, schedule: Q01DX009 (ip), vehicle: saline 106 % of control and 110 % of control | [1] 94 % of control | dose: 100.0 mg/kg/injection, schedule: Q04DX002 (ip), vehicle: saline 112 % of control

CC1(C)N=CN=C(N)N1c1ccc(CCC(=O)Nc2ccc(S(=O)(=O)F)cc2)c(Cl)c1
inactive: dose: 100.0 mg/kg/injection, schedule: Q04DX003 (ip), vehicle: saline with Tween-80 114 % of control | dose: 200.0 mg/kg/injection, schedule: Q04DX003 (ip), vehicle: saline with Tween-80 112 % of control | dose: 400.0 mg/kg/injection, schedule: Q04DX003 (ip), vehicle: saline with Tween-80 109 % of control

CCOC(=O)C(CCN(C)Cc1ccccc1)C(=O)OCC
inactive: [2] 97 % of control | [3] 100 % of control | [4] 106 % of control

CCCCCCCC/C=C\CCCCCCCC(=O)OCC#CCOC(=O)CCCCCCC/C=C/CCCCCCCC
inactive: dose: 100.0 mg/kg/injection, schedule: Q01DX001 (ip), vehicle: saline with Tween-80 94 % of control | dose: 100.0 mg/kg/injection, schedule: Q01DX009 (ip), vehicle: saline with Tween-80 95 % of control and 101 % of control | dose: 100.0 mg/kg/injection, schedule: Q04DX002 (ip), vehicle: saline with Tween-80 97 % of control and 102 % of control | dose: 200.0 mg/kg/injection, schedule: Q01DX001 (ip), vehicle: saline with Tween-80 91 % of control | [5] 93 % of control and 94 % of control | dose: 200.0 mg/kg/injection, schedule: Q04DX002 (ip), vehicle: saline with Tween-80 97 % of control and 104 % of control | dose: 400.0 mg/kg/injection, schedule: Q01DX001 (ip), vehicle: saline with Tween-80 94 % of control | [6] 95 % of control and 97 % of control | dose: 400.0 mg/kg/injection, schedule: Q04DX002 (ip), vehicle: saline with Tween-80 96 % of control and 108 % of control

BrC(c1ccccc1)C(Br)c1ccccc1 (centres undefined)
inactive: [2] 86 % of control | [7] 92 % of control | [3] 96 % of control | [8] 94 % of control | [4] 91 % of control | [9] 100 % of control

COC(=O)c1ccc[n+](Cc2c(Cl)cccc2Cl)c1
inactive: dose: 75.0 mg/kg/injection, schedule: Q01DX001 (ip), vehicle: saline 95 % of control | dose: 150.0 mg/kg/injection, schedule: Q01DX001 (ip), vehicle: saline 96 % of control

CCOC(=O)C12CCC=C1N(S(=O)(=O)N(C)C)c1ccc(NS(=O)(=O)N(C)C)cc12 (centres undefined)
inactive: dose: 45.0 mg/kg/injection, schedule: Q04DX003 (ip), vehicle: Klucel (hydroxypropylcellulose) (HPC) 105 % of control | dose: 65.0 mg/kg/injection, schedule: Q04DX003 (ip), vehicle: Klucel (hydroxypropylcellulose) (HPC) 105 % of control | [10] 97 % of control | [7] 105 % of control and 120 % of control | [11] 104 % of control | [8] 89 % of control | dose: 400.0 mg/kg/injection, schedule: Q01DX001 (ip), vehicle: Klucel (hydroxypropylcellulose) (HPC) 98 % of control | [9] 97 % of control

COc1ccc(/C(C#N)=C/c2ccc(N(C)CCC#N)cc2)cc1
inactive: dose: 12.5 mg/kg/injection, schedule: Q01DX009 (ip), vehicle: Klucel (hydroxypropylcellulose) (HPC) 103 % of control | dose: 25.0 mg/kg/injection, schedule: Q01DX009 (ip), vehicle: Klucel (hydroxypropylcellulose) (HPC) 100 % of control

Clc1ccccc1-n1cc(-c2ccccc2)nn1
inactive: [12] 114 % of control | [13] 108 % of control | [14] 108 % of control

Nc1cccc(-c2ccccc2)c1
inactive: [10] 92 % of control | [11] 90 % of control

COc1ccc(O)c(Br)c1
inactive: dose: 100.0 mg/kg/injection, schedule: Q01DX009 (ip), vehicle: other 97 % of control | dose: 100.0 mg/kg/injection, schedule: Q04DX003 (ip), vehicle: other 94 % of control | dose: 200.0 mg/kg/injection, schedule: Q01DX009 (ip), vehicle: other 103 % of control | dose: 200.0 mg/kg/injection, schedule: Q04DX003 (ip), vehicle: other 96 % of control | dose: 400.0 mg/kg/injection, schedule: Q04DX003 (ip), vehicle: other 92 % of control

Cc1sc(Cc2ccccc2)nc1-c1ccc(N=Cc2ccc(N(CCCl)CCCl)cc2)cc1
inactive: dose: 100.0 mg/kg/injection, schedule: Q01DX001 (ip), vehicle: carboxymethylcellulose (CMC) 104 % of control | [15] 98 % of control | [16] 95 % of control

CNCC(C)CNC
inactive: dose: 25.0 mg/kg/injection, schedule: Q04DX003 (ip), vehicle: saline 94 % of control | [1] 103 % of control | dose: 50.0 mg/kg/injection, schedule: Q04DX003 (ip), vehicle: saline 93 % of control | dose: 100.0 mg/kg/injection, schedule: Q01DX009 (ip), vehicle: saline 103 % of control | dose: 100.0 mg/kg/injection, schedule: Q04DX003 (ip), vehicle: saline 95 % of control and 97 % of control

CCOC(=O)c1cnc(=O)[nH]c1Nc1ccccc1Cl
inactive: [7] 94 % of control | [8] 101 % of control | [9] 90 % of control

O=C(O)C12CCC1(Cl)CC2 (centres undefined)
inactive: dose: 50.0 mg/kg/injection, schedule: Q04DX002 (ip), vehicle: Klucel (hydroxypropylcellulose) (HPC) 104 % of control | [12] 97 % of control | [13] 108 % of control

O=C1OCCN1S(=O)(=O)c1ccc(Cl)c(Cl)c1
inactive: [2] 87 % of control | [7] 100 % of control | [3] 97 % of control | [8] 105 % of control | [4] 90 % of control | [9] 101 % of control

CC(=O)Nc1c([N+](=O)[O-])cc2c3c(cccc13)C=C2
inactive: [5] 96 % of control | [6] 96 % of control

CC(C(=O)O)(c1ccccc1)c1ccccc1
inactive: dose: 100.0 mg/kg/injection, schedule: Q04DX002 (ip), vehicle: gum acacia 101 % of control | dose: 200.0 mg/kg/injection, schedule: Q04DX002 (ip), vehicle: gum acacia 96 % of control | dose: 400.0 mg/kg/injection, schedule: Q04DX002 (ip), vehicle: gum acacia 96 % of control

O=[N+]([O-])c1cccc(-n2cccc2)c1
inactive: dose: 100.0 mg/kg/injection, schedule: Q01DX001 (ip), vehicle: steriod suspending solution 101 % of control | dose: 200.0 mg/kg/injection, schedule: Q01DX001 (ip), vehicle: steriod suspending solution 103 % of control | dose: 400.0 mg/kg/injection, schedule: Q01DX001 (ip), vehicle: steriod suspending solution 97 % of control

Nc1ccc(C(=O)O)c(F)c1
inactive: [12] 101 % of control | [13] 104 % of control | [14] 101 % of control

CCOC(=O)C(C(=O)CC)C(COC)C(=O)OC (centres undefined)
inactive: [17] 92 % of control | [18] 96 % of control | [19] 97 % of control

O=C1NC(=O)C(c2ccccc2)O1 (centres undefined)
inactive: [17] 92 % of control | [18] 103 % of control | [19] 97 % of control

O=S1(=O)/C(=C\C2CCCCC2)c2c1c(-c1ccccc1)c1ccccc1c2-c1ccccc1
inactive: dose: 50.0 mg/kg/injection, schedule: Q01DX001 (ip), vehicle: carboxymethylcellulose (CMC) 86 % of control | [15] 92 % of control | [16] 89 % of control

COc1ccc(CO)cc1
inactive: dose: 75.0 mg/kg/injection, schedule: Q04DX003 (ip), vehicle: Klucel (hydroxypropylcellulose) (HPC) 95 % of control | dose: 150.0 mg/kg/injection, schedule: Q04DX003 (ip), vehicle: Klucel (hydroxypropylcellulose) (HPC) 101 % of control | dose: 300.0 mg/kg/injection, schedule: Q04DX003 (ip), vehicle: Klucel (hydroxypropylcellulose) (HPC) 91 % of control

CCC(NC(=O)OCc1ccccc1)C(=O)NC(Cc1ccc(O)cc1)C(=O)OCc1ccccc1 (centres undefined) (Cbz-[Abu]-Tyr-OBn; configuration not given here)
inactive: [2] 102 % of control | [3] 91 % of control | [4] 99 % of control
